The values below come from patent US9200001B2, “Triazolyl PDE10 inhibitors” (Merck Sharp & Dohme Corp., priority 2011, dated 2015).

For orientation: Ki means a dissociation constant, usually derived from enzyme kinetics or from competition with a known ligand.

The target in this experiment is human PDE10A2 (Homo sapiens (Human), UniProt Q9Y233). As to the kind of experiment: PDE10 fluorescence polarization (IMAP FP) inhibition assay. Particulars: FAM-labeled cAMP 50 nM, room temperature, read-out: PDE10a Ki. The format is biochemical. How it is done:
The activity of the compounds in accordance with the present invention as PDE10 inhibitors may be readily determined without undue experimentation using a fluorescence polarization (FP) methodology that is well known in the art (Huang, W., et al., J. Biomol Screen, 2002, 7: 215).
In a typical experiment the PDE10 inhibitory activity of the compounds of the present invention was determined in accordance with the following experimental method. PDE10A2 was amplified from human fetal brain cDNA (Clontech, Mountain View, Calif.) using a forward primer corresponding to nucleotides 56-77 of human PDE10A2 (Accession No. AF127480, Genbank Identifier 4894716), containing a Kozak consensus sequence, and a reverse primer corresponding to nucleotides 2406-2413 of human PDE10A2 (Accession No. AF127480, Genbank Identifier 4894716). Amplification with Easy-A polymerase (Stratagene, La Jolla, Calif.) was 95° C. for 2 minutes followed by thirty three cycles of 95° C. for 40 seconds, 55° C. for 30 seconds, and 72° C. for 2 minutes 48 seconds. Final extension was 72° C. for 7 minutes. The PCR product was TA cloned into pcDNA3.2-TOPO (Invitrogen, Carlsbad, Calif.) according to standard protocol. AD293 cells with 70-80% confluency were transiently transfected with human PDE10A2/pcDNA3.2-TOPO using Lipofectamine 2000 according to manufacturer specifications (Invitrogen, Carlsbad, Calif.). Cells were harvested 48 hours post-transfection and lysed by sonication (setting 3, 10×5 sec pulses) in a buffer containing 20 mM HEPES, 1 mM EDTA and protease inhibitor cocktail (Roche). Lysate was collected by centrifugation at 75,000×g for 20 minutes. Supernatant containing the cytoplasmic fraction was used for evaluation of PDE10A2 activity. The fluorescence polarization assay for cyclic nucleotide phosphodiesterases was performed using an IMAP® FP kit supplied by Molecular Devices, Sunnyvale, Calif. (product # R8139). IMAP® technology has been applied previously to phosphodiesterase assays (Huang, W., et al., J. Biomol Screen, 2002, 7: 215). Assays were performed at room temperature in 384-well microtiter plates with an incubation volume of 20.2 μL. Solutions of test compounds were prepared in DMSO and serially diluted with DMSO to yield 8 μL of each of 10 solutions differing by 3-fold in concentration, at 32 serial dilutions per plate. 100% inhibition is determined using a known PDE10 inhibitor, which can be any compound that is present at 5,000 times its Ki value in the assay described as follows, such as papaverine (see Siuciak, et al. Neuropharmacology (2006) 51:386-396; Becker, et al. Behav Brain Res (2008) 186(2):155-60; Threlfell, et al., J Pharmacol Exp Ther (2009) 328(3):785-795), 2-{4-[pyridin-4-yl-1-(2,2,2-trifluoroethyl)-1H-pyrazol-3-yl]phenoxymethyl}quinoline succinic acid or 2-[4-(1-methyl-4-pyridin-4-yl-1H-pyrazol-3-yl)-phenoxymethyl]quinoline succinic acid (see Schmidt, et al. J Pharmacol Exp Ther (2008) 325:681-690; Threlfall, et al., J Pharmacol Exp Ther (2009) 328(3): 785-795). 0% of inhibition is determined by using DMSO (1% final concentrations).
A Labcyte Echo 555 (Labcyte, Sunnyvale, Calif.) is used to dispense 200 nL from each well of the titration plate to the 384 well assay plate. A solution of enzyme (1/1600 dilution from aliquots; sufficient to produce 20% substrate conversion) and a separate solution of FAM-labeled cAMP PDE from Molecular Devices (product # R7506), at a final concentration of 50 nM are made in the assay buffer (10 mM Tris HCl, pH 7.2, 10 mM MgCl2, 0.05% NaN3 0.01% Tween-20, and 1 mM DTT). The enzyme and the substrate are then added to the assay plates in two consecutive additions of 10 μL, and then shaken to mix. The reaction is allowed to proceed at room temperature for 30 minutes. A binding solution is then made from the kit components, comprised of 80% Solution A, 20% Solution B and binding reagent at a volume of 1600 the total binding solution. […]
Background: Polarisation of emitted light reports the rotation of a fluorescent probe.

Structures are written as SMILES. A value given as a limit tells only on which side of the number the result lay.

human PDE10A2, sequence (Q9Y233 267-1055): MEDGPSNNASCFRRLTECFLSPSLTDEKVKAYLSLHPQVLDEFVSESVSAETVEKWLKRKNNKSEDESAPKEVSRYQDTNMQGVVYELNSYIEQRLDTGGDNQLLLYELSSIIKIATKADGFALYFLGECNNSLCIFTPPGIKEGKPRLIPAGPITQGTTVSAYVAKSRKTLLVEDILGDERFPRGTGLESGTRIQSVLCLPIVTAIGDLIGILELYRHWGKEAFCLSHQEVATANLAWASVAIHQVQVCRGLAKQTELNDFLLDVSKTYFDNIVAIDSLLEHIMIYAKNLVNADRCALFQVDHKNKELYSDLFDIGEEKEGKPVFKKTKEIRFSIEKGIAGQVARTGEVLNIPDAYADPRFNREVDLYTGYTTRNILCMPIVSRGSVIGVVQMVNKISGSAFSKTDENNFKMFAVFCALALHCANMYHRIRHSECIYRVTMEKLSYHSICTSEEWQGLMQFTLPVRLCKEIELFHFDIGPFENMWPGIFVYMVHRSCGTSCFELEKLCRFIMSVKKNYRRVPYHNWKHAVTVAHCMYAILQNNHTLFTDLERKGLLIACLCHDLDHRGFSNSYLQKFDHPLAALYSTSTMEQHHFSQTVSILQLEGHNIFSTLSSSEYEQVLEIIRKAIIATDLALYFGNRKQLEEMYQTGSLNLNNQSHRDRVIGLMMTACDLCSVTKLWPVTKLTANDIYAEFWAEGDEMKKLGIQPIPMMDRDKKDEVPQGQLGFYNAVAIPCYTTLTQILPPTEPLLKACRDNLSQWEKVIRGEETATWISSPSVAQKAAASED

As to `COc1ccc(Cc2nc(C)nn2-c2cc(CCc3ccc4ccccc4n3)nc(C)n2)nc1OC` [Cpd 8, 2-(2-(6-(5-((5,6-dimethoxypyridin-2-yl)methyl)-3-methyl-1H-1,2,4-triazol-1-yl)-2-methylpyrimidin-4-yl)ethyl)quinoline], the Ki is 0.028 nM.
The result for `Cc1nc(C)n(-c2cc([C@@H]3C[C@H]3c3nc4ccccc4n3C)nc(OC3CCC3)n2)n1` [Cpd 136, 2-((1R,2R)-2-(2-cyclobutoxy-6-(3,5-dimethyl-1H-1,2,4-triazol-1-yl)pyrimidin-4-yl)cyclopropyl)-1-methyl-1H-benzo[d]imidazole] reads 0.42 nM.
The figure for `COc1ccc(Cc2nc(C)nn2-c2cc(/C=C/c3ccc(C)cn3)nc(C)n2)cc1OC` [Cpd 20, (E)-4-(5-(3,4-dimethoxybenzyl)-3-methyl-1H-1,2,4-triazol-1-yl)-2-methyl-6-(2-(5-methylpyridin-2-yl)vinyl)pyrimidine] is 0.11 nM; for `Cc1nc(C)n(-c2cc([C@H]3C[C@@H]3c3nc4ccccc4n3C)nc(N3CCN(C)CC3)n2)n1` (relative stereo) [Cpd 121, trans-2-{2-[6-(3,5-dimethyl-1H-1,2,4-triazol-1-yl)-2-(4-methylpiperazin-1-yl)pyrimidin-4-yl]cyclopropyl}-1-methyl-1H-benzimidazole] it is 3.1 nM.
The figure for `Cc1nc(C)n(-c2cc([C@H]3C[C@@H]3c3nc4ccccc4n3C)nc(N)n2)n1` (relative stereo) [Cpd 123, trans-4-(3,5-dimethyl-1H-1,2,4-triazol-1-yl)-6-[2-(1-methyl-1H-benzimidazol-2-yl)cyclopropyl]pyrimidin-2-amine] is 4.2 nM; for `Cc1nc(OCc2ccc3ccccc3n2)cc(-n2nc(C)nc2Cc2nc(C)sc2C)n1` [Cpd 9, 2,5-dimethyl-4-((3-methyl-1-(2-methyl-6-(quinolin-2-ylmethoxy)pyrimidin-4-yl)-1H-1,2,4-triazol-5-yl)methyl)thiazole] it is 62 nM; for `COc1ccc(Cc2nc(C)nn2-c2cc(C#Cc3ccc4ccccc4n3)nc(C)n2)nc1OC` [Cpd 7, 2-((6-(5-((5,6-dimethoxypyridin-2-yl)methyl)-3-methyl-1H-1,2,4-triazol-1-yl)-2-methylpyrimidin-4-yl)ethynyl)quinoline] it is 0.073 nM.
`Cc1nc([C@@H]2C[C@H]2c2nc3ccccc3n2Cc2ccccn2)cc(-n2nc(C)nc2C)n1` (stereo in doubt) [Cpd 73, 2-{2-[6-(3,5-dimethyl-1H-1,2,4-triazol-1-yl)-2-methylpyrimidin-4-yl]cyclopropyl}-1-(pyridin-2-ylmethyl)-1H-benzimidazole]: the Ki worked out at 13.1 nM.
As to `CCc1nc([C@H]2C[C@@H]2c2nc3ccccc3n2C)cc(-n2nc(C)nc2C)n1` (relative stereo) [Cpd 119, trans-2-{2-[6-(3,5-dimethyl-1H-1,2,4-triazol-1-yl)-2-ethylpyrimidin-4-yl]cyclopropyl}-1-methyl-1H-benzimidazole], the inhibitory constant (Ki) was found to be 1.2 nM.
For `COc1ccc(Cc2nc(C)nn2-c2cc(C3CC3c3nnc(C)s3)nc(C)n2)cc1OC` (stereo not shown) [Cpd 29, 2-(2-(6-(5-(3,4-dimethoxybenzyl)-3-methyl-1H-1,2,4-triazol-1-yl)-2-methylpyrimidin-4-yl)cyclopropyl)-5-methyl-1,3,4-thiadiazole], the Ki is 9.8 nM.
The result for `COc1ncc(Cc2nc(C)nn2-c2cc(CCc3ccc4ccccc4n3)nc(C)n2)nc1OC` [Cpd 15, 2-(2-(6-(5-((5,6-dimethoxypyrazin-2-yl)methyl)-3-methyl-1H-1,2,4-triazol-1-yl)-2-methylpyrimidin-4-yl)ethyl)quinoline] reads 0.056 nM; that for `Cc1nc([C@@H]2C[C@H]2c2nc3ccccc3n2C)cc(-n2nc(C)nc2CF)n1` [Cpd 93, 2-[(1R,2R)-2-{6-[5-(fluoromethyl)-3-methyl-1H-1,2,4-triazol-1-yl]-2-methylpyrimidin-4-yl}cyclopropyl]-1-methyl-1H-benzimidazole], 3.1 nM.
The result for `Cc1nc([C@H]2C[C@@H]2c2nc3ccccc3n2C)cc(-n2nc(C)nc2O)n1` (stereo in doubt) [Cpd 78, 3-methyl-1-{2-methyl-6-[2-(1-methyl-1H-benzimidazol-2-yl)cyclopropyl]pyrimidin-4-yl}-1H-1,2,4-triazol-5-ol] reads above 75 nM; that for `Cc1nc([C@H]2C[C@@H]2c2nc3ccccc3n2C)cc(-n2nc(C)nc2C2CCCCC2)n1` (stereo in doubt) [Cpd 79, 2-{2-[6-(5-cyclohexyl-3-methyl-1H-1,2,4-triazol-1-yl)-2-methylpyrimidin-4-yl]cyclopropyl}-1-methyl-1H-benzimidazole], 2.5 nM; that for `Cc1nc([C@H]2C[C@@H]2c2nc3ccccc3n2C)cc(-n2nc(C)nc2-c2ccccn2)n1` (stereo in doubt) [Cpd 82, 1-methyl-2-{2-[2-methyl-6-(3-methyl-5-pyridin-2-yl-1H-1,2,4-triazol-1-yl)pyrimidin-4-yl]cyclopropyl}-1H-benzimidazole], above 75 nM.
The result for `Cc1nc([C@@H]2C[C@H]2c2nc3ccccc3n2Cc2cccnc2)cc(-n2nc(C)nc2C)n1` (stereo in doubt) [Cpd 74, 2-{2-[6-(3,5-dimethyl-1H-1,2,4-triazol-1-yl)-2-methylpyrimidin-4-yl]cyclopropyl}-1-(pyridin-3-ylmethyl)-1H-benzimidazole] reads 9.9 nM; that for `Cc1nc(C)n(-c2cc([C@H]3C[C@@H]3c3nc4ccccc4n3C)nc(NC(C)C)n2)n1` (relative stereo) [Cpd 115, trans-4-(3,5-dimethyl-1H-1,2,4-triazol-1-yl)-6-[2-(1-methyl-1H-benzimidazol-2-yl)cyclopropyl]-N-(1-methylethyl)pyrimidin-2-amine], 1.9 nM; that for `Cc1nc(C)n(-c2cc([C@H]3C[C@@H]3c3nc4ccccc4n3C)nc(C(F)(F)F)n2)n1` (relative stereo) [Cpd 109, trans-2-{2-[6-(3,5-dimethyl-1H-1,2,4-triazol-1-yl)-2-(trifluoromethyl)pyrimidin-4-yl]cyclopropyl}-1-methyl-1H-benzimidazole], 1.4 nM.
Turning to `Cc1cc(-n2nc(C)nc2C)cc([C@@H]2C[C@H]2c2nc3ccccc3n2C)n1` (relative stereo) [Cpd 108, trans-2-{2-[4-(3,5-dimethyl-1H-1,2,4-triazol-1-yl)-6-methylpyridin-2-yl]cyclopropyl}-1-methyl-1H-benzimidazole], the Ki is 14.2 nM.
The figure for `Cc1nc(C)n(-c2cc([C@H]3C[C@@H]3c3nc4ccccc4n3C)nc(NC(C)(C)C)n2)n1` (relative stereo) [Cpd 118, trans-N-tert-butyl-4-(3,5-dimethyl-1H-1,2,4-triazol-1-yl)-6-[2-(1-methyl-1H-benzimidazol-2-yl)cyclopropyl]pyrimidin-2-amine] is 1.7 nM; for `Cc1nc(CCc2ccc3ncccc3n2)cc(-n2nc(C)nc2C)n1` [Cpd 99, 2-{2-[6-(3,5-dimethyl-1H-1,2,4-triazol-1-yl)-2-methylpyrimidin-4-yl]ethyl}-1,5-naphthyridine] it is 73 nM; for `COCc1ncnn1-c1cc([C@@H]2C[C@H]2c2nc3ccccc3n2C)nc(C)n1` [Cpd 94, 2-[(1R,2R)-2-{6-[5-(methoxymethyl)-1H-1,2,4-triazol-1-yl]-2-methylpyrimidin-4-yl}cyclopropyl]-1-methyl-1H-benzimidazole] it is 5.3 nM.
